Assay results as given in patent publication US20230102192A1, “THERAPIES FOR THE TREATMENT OF DISEASES AND DISORDERS ASSOCIATED WITH ABNORMAL EXPRESSION OF A NEURAL-ASSOCIATED GENE” (The Regents of the University of California, priority 2020, published 2023).
Like-named read-outs stand apart in the source and are kept apart here.

What was measured:
[1] = cited from earlier work
[2] = system: MECP2-KO cortical organoids; assay: Synapsin1+ puncta quantitation in cortical organoids; format: cell-based, human; details: 1 μM for one month, vs untreated
Experimental: Immunofluorescence of cells and cortical organoids. Immunofluorescence was performed as described in Chailangkam et al. Cells fixed in 4% PFA were PBS-washed and permeabilized/blocked (0.1% Triton X-100, 2% BSA). Cortical organoids fixed in 4% PFA were transferred to 30% sucrose, sunken, embedded in O.C.T. (Sakura, Tokyo, Japan), and cryostat-sectioned. Air-dried slides with organoid sections were permeabilized/blocked (0.1% Triton X-100, 3% FBS, PBS). […] Slides or coverslips were mounted with ProLong Gold anti-fade mountant (Life Technologies) and analyzed with a Z1 Axio Observer Apotome fluorescence microscope (Zeiss, Oberkochen, Germany).
Nefiracetam and PHA 543613 rescue network activity in MECP2-KO cortical organoids. The therapeutic efficacy of Nefiracetam and PHA 543613 was evaluated with cortical organoids, a complex, three-dimensional human neurodevelopmental model that closely recapitulates aspects of human fetal neurodevelopment. […]

GABAA receptor = details: read-out: affinity for the GABAA receptor (IC50); cited from earlier work
[3] = in vivo, cited from earlier work
[4] = molecular target: α7 subtype of neural nicotinic acetylcholine receptors (Homo sapiens, UniProt P36544); details: cited from earlier work
Chain of α7 subtype of neural nicotinic acetylcholine receptors (P36544 23-502): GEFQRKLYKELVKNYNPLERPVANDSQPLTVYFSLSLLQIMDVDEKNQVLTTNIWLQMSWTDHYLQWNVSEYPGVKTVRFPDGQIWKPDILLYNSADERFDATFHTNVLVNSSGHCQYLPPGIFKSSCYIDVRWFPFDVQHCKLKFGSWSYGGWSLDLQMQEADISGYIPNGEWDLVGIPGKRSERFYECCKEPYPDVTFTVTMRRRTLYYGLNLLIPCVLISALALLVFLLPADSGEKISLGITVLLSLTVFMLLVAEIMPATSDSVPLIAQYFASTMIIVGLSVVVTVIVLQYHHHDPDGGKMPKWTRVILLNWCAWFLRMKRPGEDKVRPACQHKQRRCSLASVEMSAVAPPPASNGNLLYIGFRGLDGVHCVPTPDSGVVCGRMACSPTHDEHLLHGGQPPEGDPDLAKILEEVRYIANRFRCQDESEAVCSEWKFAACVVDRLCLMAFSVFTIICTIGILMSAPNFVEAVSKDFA

| Compound | toxicity during clinical trials ([1]; clinical trials) | toxicity on long-term consumption ([1]; humans and primates) | synaptic puncta (Synapsin1+) [2] | IC50 (GABAA receptor) [nM] | brain penetration [3] | oral bioavailability [3] | brain penetration ([3]; listed as PHA-543613) | oral bioavailability ([3]; listed as PHA-543613) | agonist activity at α7 nAChR [4] |
| --- | --- | --- | --- | --- | --- | --- | --- | --- | --- |
| Cc1cccc(C)c1NC(=O)CN1CCCC1=O [Nefiracetam, nefiracetam] | no evidence of toxicity | no toxicity | increase | 8.5 | – | – | – | – | – |
| O=C(N[C@H]1CN2CCC1CC2)c1cc2ccoc2cn1 [PHA 543613, N-[(3R)-1-azabicyclo[2.2.2]oct-3-yl]furo[2,3-c]pyridine-5-carboxamide] | – | – | – | – | rapid brain penetration | high oral bioavailability | high level of brain penetration | good oral bioavailability | potent and selective agonist |
